Experimental data taken from patent US12616666B2, “Coenzyme Q10 formulations in the treatment and prevention of epidermolysis bullosa” (BPGbio, Inc., priority 2017, dated 2026).

Tests used:
[1] = test system: melanoma (SK-MEL-28) cell line; experiment: Cell proliferation with increasing Coenzyme Q10 concentration; format: cell-based; conditions: SK-MEL-28, increasing concentration (FIG. 1)
Excerpt: (§1) When applied topically to melanoma tumors in nude mice, a 1.0% CoQ10 formulation inhibited growth and angiogenesis. The mechanism involves the shifting of the cellular bioenergetics from cytoplasmic glycolysis towards mitochondrial oxidative phosphorylation (AACR 2011). The shift in cellular metabolic pathways in cancer including SCC and melanoma results in the recapitulation of the p53 regulated apoptotic potential by re-establishing the balance of pro-apoptic Bcl-2/Bax ratios in a manner conducive for cell death.

[2] = test system: normal human keratinocytes; experiment: as above; format: cell-based; conditions: increasing concentration (FIG. 1)
Excerpt: as §1

[3] = test system: squamous cell carcinoma (SCC-25) cell line; experiment: as above; format: cell-based; conditions: SCC-25, increasing concentration (FIG. 1)
Excerpt: as §1

adult fibroblasts = experiment: as above; format: cell-based, human; conditions: normal fibroblasts, increasing concentration (FIG. 1)
Excerpt: as §1

SK-MEL-28 melanoma cells = experiment: Western Blot of protein expression; format: cell-based
Method: FIG. 2A and FIG. 2B show the expression of isocitrate dehydrogenase (IDH-1) in SK-MEL-28 melanoma cells treated with increasing concentration of Coenzyme Q10 (50 μM or 100 μM).
(§2) FIG. 3A and FIG. 3B show the effect of Coenzyme Q10 treatment (50 μM or 100 μM) on expression of ATP Citrate lyase (ACL) in SK-MEL-28 melanoma cells. Human aortic smooth muscle cells (HASMC) were used as a control.
FIG. 4A and FIG. 4B show the effect of Coenzyme Q10 on expression of p53, pl4ARF and MDM2 in SK-MEL-28 melanoma cells.
Bcl-2, Bax and Caspase 3 are pro- and anti-apoptotic markers regulating cell death pathways. A beta-actin loading control was used.

[4] = test system: Human aortic smooth muscle cells (HASMC); experiment: Western Blot of ACL expression in normal control cells; format: cell-based; conditions: 50 μM or 100 μM
Method: as §2

SCC cell line (SCC-25) = experiment: Proteomic analysis of SCC cell line; format: cell-based; conditions: 100 uM CoQ10, SCC-25
Method: Next, a proteomic analysis of an in-vitro model of squamous cell carcinoma, SCC cell line (SCC-25), was undertaken to delineate the underlying mechanistic regulating effect of the CoQ10 compositions of the invention. Table 1, shown above and reproduced below, lists the proteins identified to have a differential response to 100 uM CoQ10 treatment in SCC cells at 6 and 24 hours.

SCC cells = experiment: Apoptosis Array gene regulation; format: cell-based; conditions: 100 uM Q10, SCC cells
Method: Table 3, shown above and reproduced below, lists the genes in SCC cells that are regulated by 100 uM Q10 treatment when analyzed by the Apoptosis Array.

[5] = Heat stability of CoQ10 solubilized in Polysorbate 80; format: physicochemical; conditions: 25-60% CoQ10 solubilized in Polysorbate 80, heated for several hours at 55° C.
Method: Coenzyme Q10 […] is a deep yellow-orange powder and is very hydrophobic with a melting point of approximately 48 degrees centigrade. The active ingredient, CoQ10 […] Cream, ubidecarenone, USP may be adversely affected by heat and light, according to the literature. […] Heating the mixture to 50-55° C. (i.e., 2-7° C. above the melting point of CoQ10) greatly speeds the solubilization of CoQ10. To manufacture the topical CoQ10 cream, two CoQ10 concentrate phases (CoQ10/Polysorbate 80 and water-lecithin-glycol-phenoxyethanol) were each heated separately to 50-55° C. with the water phase added to the solubilized CoQ10 and were mixed with high shear homogenization to form a microemulsion concentrate of CoQ10. The CoQ10 concentrate was then added to a water-in-oil (W/O) cream emulsion base to produce the final CoQ10 cream. The final concentration of CoQ10 in the cream was 3.0%. The CoQ10 3% cream is further described in International Publication No. WO2008/116135, the entire content of which is incorporated by reference in its entirety herein.

IL6 = experiment: Upregulation of inflammatory cytokines after topical CoQ10; conditions: topical application
[6] = SK-MEL-28, 50 μM or 100 μM for 12 or 24 hours
[7] = direction: Decrease, at 6 and 24 hr
[8] = direction: Decrease, at 24 hr only
[9] = direction: Increase, at 6 and 24 hr

Structure (SMILES): COC1=C(OC)C(=O)C(C/C=C(\C)CC/C=C(\C)CC/C=C(\C)CC/C=C(\C)CC/C=C(\C)CC/C=C(\C)CC/C=C(\C)CC/C=C(\C)CC/C=C(\C)CCC=C(C)C)=C(C)C1=O [CoQ10, Coenzyme Q10]
- cell proliferation rate [1]: dose dependent decrease
- cell proliferation rate ([1]; listed as Coenzyme Q10): concentration dependent decrease
- cell proliferation rate [2]: no effect
- cell proliferation rate [3]: dose dependent decrease
- cell proliferation rate ([3]; listed as Coenzyme Q10): concentration dependent decrease
- cell proliferation rate (adult fibroblasts): no effect
- expression of MDM2 (SK-MEL-28 melanoma cells; SK-MEL-28 (FIG. 4)): decrease
- expression of ATP Citrate lyase (ACL) (SK-MEL-28 melanoma cells; SK-MEL-28, 50 μM or 100 μM): concentration dependent decrease
- expression of isocitrate dehydrogenase (IDH-1) (SK-MEL-28 melanoma cells; SK-MEL-28, 50 μM or 100 μM): concentration dependent increase
- expression of anti-apoptotic bcl-2 protein (SK-MEL-28 melanoma cells; [6]): concentration dependent decrease
- expression of caspase 3 (SK-MEL-28 melanoma cells; [6]): progressive dose-dependent increase
- expression of pro-apoptotic bax (SK-MEL-28 melanoma cells; [6]): concentration dependent increase
- expression of ATP Citrate lyase (ACL) [4]: not observed
- NM23 protein (NME1) Response (SCC cell line (SCC-25); at 24 hr): decrease at 24 hr
- Keratin 1 (KRT1) Response (fold change) (SCC cell line (SCC-25); [7]): Decrease (2.3) at 6 and 24 hr fold change
- Transaldolase 1 (TALDO1) Response (fold change) (SCC cell line (SCC-25); [7]): Decrease (1.5) at 6 and 24 hr fold change
- Rho GDP dissociation inhibitor (GDI) alpha (ARHGDIA) Response (fold change) (SCC cell line (SCC-25); direction: Decrease, at 6 hr only): Decrease (1.5) at 6 hr only fold change
- Proteasome activator subunit 3 (PSME3) Response (fold change) (SCC cell line (SCC-25); [8]): Decrease (1.3) at 24 hr only fold change
- Protessome Beta 7 (PSMB7) Response (fold change) (SCC cell line (SCC-25); [8]): Decrease (1.6) at 24 hr only fold change
- Heat shock 27 kDa protein 1 (HSPB1) Response (fold change) (SCC cell line (SCC-25); [9]): Increase (−1.9) at 6 and 24 hr fold change
- Keratin 13 (KRT13) Response (fold change) (SCC cell line (SCC-25); [9]): Increase (−1.5) at 6 and 24 hr fold change
- Keratin 14 (KRT14) Response (fold change) (SCC cell line (SCC-25); [9]): Increase (−1.6) at 6 and 24 hr fold change
- NM23 protein (NME1) Response (fold change) (SCC cell line (SCC-25); printed direction: increase, at 6 hr): increase (−1.2) at 6 hr, fold change
- BCL2L1 gene Regulation (SCC cells; 6 hours): Down regulated at 6 hours and
- CARD6 gene Regulation (SCC cells; 6 hours): Down regulated at 6 hours.
- AKT1 gene Regulation (SCC cells; 24 hours): then up regulated at 24 hours.
- BAG4 gene Regulation (SCC cells; 24 hours): Up regulated at 24 hours.
- BAX gene Regulation (SCC cells; 24 hours): Up regulated at 24 hours.
- BCL2L1 gene Regulation (SCC cells; 24 hours): then up regulated at 24 hours.
- BNIP3 gene Regulation (SCC cells; 24 hours): Down regulated at 24 hours.
- CASP6 gene Regulation (SCC cells; 24 hours): Up regulated at 24 hours.
- CASP7 gene Regulation (SCC cells; 24 hours): Up regulated at 24 hours.
- GADD45A gene Regulation (SCC cells; 24 hours): Up regulated at 24 hours.
- TP53 gene Regulation (SCC cells; 24 hours): Up regulated at 24 hours.
- TP73 gene Regulation (SCC cells; 24 hours): then up regulated at 24 hours.
- breakdown of CoQ10 on heating [5]: no measurable breakdown
- upregulation of inflammatory cytokines (IL6) (IL6): block the upregulation
